# Where two headings read alike, the source gives them in different places.
# Key:
# [1] = test system: MPTP-induced Parkinson's disease model mice; assay: MPTP-induced mouse Parkinson's disease model, pole test; assay type: in vivo, C57 mice; conditions: mean ± SD
# [2] = test system: MPTP-induced Parkinson's disease model mice; assay: MPTP-induced mouse Parkinson's disease model, striatal dopamine (DOPA) detection; assay type: in vivo, C57 mice; conditions: striatum; positive control 20 mg/kg daily, four weeks; mean ± SD
# [3] = test system: MPTP-induced Parkinson's disease model mice; assay: MPTP-induced mouse Parkinson's disease model, TH-positive fiber content in the striatum; assay type: in vivo, C57 mice; conditions: positive control 20 mg/kg daily, four weeks, mean ± SD
# [4] = test system: MPTP-induced Parkinson's disease model mice; assay: MPTP-induced mouse Parkinson's disease model, TH-positive cell counts in the substantia nigra pars compacta; assay type: in vivo, C57 mice; conditions: positive control 20 mg/kg daily, four weeks, mean ± SD
# [5] = test system: MPTP-induced Parkinson's disease model mice; assay: MPTP-induced mouse Parkinson's disease model, grip strength test; conditions: positive control 20 mg/kg group; Before Modeling; mean ± SD
# [6] = test system: rat spinal cord injury model; assay: Rat spinal cord injury model, pathological changes; conditions: 180 mg/kg single iv; spinal cord histopathology
# [7] = test system: rat spinal cord injury model; assay: Rat spinal cord injury model, BBB locomotor scores; assay type: in vivo, Male SD rats; conditions: 180 mg/kg single iv, mean±SD
# Excerpt: The scoring method is as follows: [table]
# [8] = test system: rat spinal cord injury model; assay: Rat spinal cord injury model, Neurofilament 200 (NF200) expression; assay type: in vivo, Male SD rats; conditions: 180 mg/kg single iv, mean±SD, n=6
# [9] = test system: TDP-43-A315T transgenic mice of ALS model; assay: TDP-43-A315T ALS mice, muscle tone test; assay type: in vivo; conditions: 25 mg/kg p.o., Mean±SEM
# [10] = test system: TDP-43-A315T transgenic mice of ALS model; assay: TDP-43-A315T ALS mice, rotarod test; assay type: in vivo; conditions: 25 mg/kg p.o., Mean±SEM
compound,measurement,setting,value
(Z)-3-(1-hydroxybutylidene)benzofuran-2-one piperazine salt [Example 7],Appearance,0 h,Light yellow solid
same,Purity,0 h,99.59%
same,Appearance,"High Humidity 75%, 10 d",Light yellow solid
same,Purity,"High Humidity 75%, 10 d",99.66%
same,Appearance,"High Humidity 92.5%, 10 d",Light yellow solid
same,Purity,"High Humidity 92.5%, 10 d",99.54%
same,Appearance,"High temperature 40°C, 10 d",Light yellow solid
same,Purity,"High temperature 40°C, 10 d",99.67%
same,Appearance,"High temperature 60°C, 10 d",Light yellow solid
same,Purity,"High temperature 60°C, 10 d",99.72%
same,Appearance,"Light, 10 d",Light yellow solid
same,Purity,"Light, 10 d",99.43%
(Z)-3-(1-hydroxybutenyl)benzofuran-2-one sodium salt [Example 2],Impurities RRT1.41,0 h,0.10
same,Impurities RRT1.47,0 h,0.11
same,Impurities Total impurities,0 h,0.21
same,Impurities RRT1.41,"High Humidity 75%, 10 d",0.12
same,Impurities RRT1.47,"High Humidity 75%, 10 d",0.10
same,Impurities Total impurities,"High Humidity 75%, 10 d",0.22
same,Impurities RRT1.41,"High temperature 60°C, 10 d",0.14
same,Impurities RRT1.47,"High temperature 60°C, 10 d",0.09
same,Impurities Total impurities,"High temperature 60°C, 10 d",0.23
same,Impurities RRT1.41,"Light, 10 d",0.07
same,Impurities RRT1.47,"Light, 10 d",0.09
same,Impurities Total impurities,"Light, 10 d",0.16
"CC/C=C(\O)C1C(=O)Oc2ccccc21.[Ca] (centres unmarked) [Example 6, (Z)-3-(1-hydroxybutenyl)benzofuran-2-one calcium salt]",Appearance,0 h,White solid
same,Purity,0 h,99.42%
same,Appearance,"High Humidity 75%, 10 d",White solid
same,Purity,"High Humidity 75%, 10 d",99.56%
same,Appearance,"High Humidity 92.5%, 10 d",White solid
same,Purity,"High Humidity 92.5%, 10 d",99.44%
same,Appearance,"High temperature 40°C, 10 d",White solid
same,Purity,"High temperature 40°C, 10 d",99.58%
same,Appearance,"High temperature 60°C, 10 d",White solid
same,Purity,"High temperature 60°C, 10 d",99.68%
same,Appearance,"Light, 10 d",White solid
same,Purity,"Light, 10 d",99.43%
"N[C@@H](Cc1ccc(O)c(O)c1)C(=O)O [Levodopa, reference compound]",Pole test results,"[1]; positive control 20 mg/kg daily, four weeks, Study Endpoint",8.76 ± 1.57 s
same,Pole test results,"[1]; positive control 20 mg/kg group, Before Modeling",9.40 ± 1.62 s
same,DOPA,[2],1156.72±375.72^& ng/g
same,TH-Positive Fiber Content,[3],536968.78±68050.46^&
same,TH-Positive Fiber Content,[3]; listed as levodopa,"536,968.78±68,050.46"
same,TH-Positive Cell counts,[4],31.50±4.14^&
same,Grip Strength Test,[5],272.61 ± 9.01 g
(Z)-3-(1-hydroxybutenyl)benzofuran-2-one potassium salt [Example 4],Appearance,0 h,White solid
same,Purity,0 h,99.41%
same,Appearance,"High Humidity 75%, 10 d",White solid
same,Purity,"High Humidity 75%, 10 d",99.34%
same,Appearance,"High Humidity 92.5%, 10 d",White solid
same,Purity,"High Humidity 92.5%, 10 d",99.47%
same,Appearance,"High temperature 40°C, 10 d",White solid
same,Purity,"High temperature 40°C, 10 d",99.66%
same,Appearance,"High temperature 60°C, 10 d",White solid
same,Purity,"High temperature 60°C, 10 d",99.58%
same,Appearance,"Light, 10 d",White solid
same,Purity,"Light, 10 d",99.41%
(Z)-3-(1-hydroxybutenyl)benzofuran-2-one meglumine salt [Example 9],Appearance,0 h,White solid
same,Purity,0 h,99.53%
same,Appearance,"High Humidity 75%, 10 d",White solid
same,Purity,"High Humidity 75%, 10 d",99.01%
same,Appearance,"High Humidity 92.5%, 10 d",Yellow oily liquid
same,Purity,"High Humidity 92.5%, 10 d",98.62%
same,Appearance,"High temperature 40°C, 10 d",White solid
same,Purity,"High temperature 40°C, 10 d",99.45%
same,Appearance,"High temperature 60°C, 10 d",White solid
same,Purity,"High temperature 60°C, 10 d",98.04%
same,Appearance,"Light, 10 d",White solid
same,Purity,"Light, 10 d",99.60%
C[C@H]1C[C@@H]2[C@H]([C@@H](O)C[C@@]3(C)[C@H]2CC[C@]3(O)C(=O)COC(=O)CCC(=O)O)[C@@]2(C)C=CC(=O)C=C12 [methylprednisolone succinate],cases showing a reduction in lesions,[6],3 out of 6
same,BBB Locomotor Scores,[7]; 3 d after dosing,0.1± 0.3
same,BBB Locomotor Scores,[7]; 7 d after dosing,2.8± 1.9
same,BBB Locomotor Scores,[7]; 14 d after dosing,5.7±4.5
same,BBB Locomotor Scores,[7]; 28 d after dosing,7.9±3.4
same,BBB Locomotor Scores,[7]; Before dosing,0± 0
same,Positive Count (number per field of view),[8],22.2± 6.3 number per field of view
"CCC/C(O)=C1/C(=O)Oc2ccccc21.[Mg] [Example 5, (Z)-3-(1-hydroxybutylidene)benzofuran-2-one magnesium salt]",Appearance,0 h,White solid
same,Purity,0 h,99.67%
same,Appearance,"High Humidity 75%, 10 d",White solid
same,Purity,"High Humidity 75%, 10 d",99.83%
same,Appearance,"High Humidity 92.5%, 10 d",White solid
same,Purity,"High Humidity 92.5%, 10 d",99.79%
same,Appearance,"High temperature 40°C, 10 d",White solid
same,Purity,"High temperature 40°C, 10 d",99.82%
same,Appearance,"High temperature 60°C, 10 d",White solid
same,Purity,"High temperature 60°C, 10 d",99.58%
same,Appearance,"Light, 10 d",White solid
same,Purity,"Light, 10 d",99.72%
CCC/C(O)=C1/C(=O)Oc2ccccc21.NCCO [Example 8],Appearance,0 h,White solid
same,Purity,0 h,99.19%
same,Appearance,"High Humidity 75%, 10 d",White solid
same,Purity,"High Humidity 75%, 10 d",99.71%
same,Appearance,"High Humidity 92.5%, 10 d",White solid
same,Purity,"High Humidity 92.5%, 10 d",99.79%
same,Appearance,"High temperature 40°C, 10 d",White solid
same,Purity,"High temperature 40°C, 10 d",99.75%
same,Appearance,"High temperature 60°C, 10 d",White solid
same,Purity,"High temperature 60°C, 10 d",99.75%
same,Appearance,"Light, 10 d",White solid
same,Purity,"Light, 10 d",99.78%
"Nc1nc2ccc(OC(F)(F)F)cc2s1 [Riluzole, reference compound]",Muscle Tone,"[9]; female mice, animal age 6 weeks",145.2 ± 5.444 g
same,Muscle Tone,"[9]; female mice, animal age 8 weeks",177.8 ± 9.836 g
same,Muscle Tone,"[9]; female mice, animal age 10 weeks",133.6 ± 12.04 g
same,Muscle Tone,"[9]; female mice, animal age 12 weeks",161.5 ± 3.666 g
same,Muscle Tone,"[9]; female mice, animal age 13 weeks",146.4 ± 6.928 g
same,Muscle Tone,"[9]; female mice, animal age 14 weeks",143.1 ± 9.165 g
same,Muscle Tone,"[9]; female mice, animal age 16 weeks",149.0 ± 6.827 g
same,Muscle Tone,"[9]; male mice, animal age 6 weeks",144.0 ± 10.127 g
same,Muscle Tone,"[9]; male mice, animal age 8 weeks",152.4 ± 10.35 g
same,Muscle Tone,"[9]; male mice, animal age 10 weeks",150.5 ± 14.46 g
same,Muscle Tone,"[9]; male mice, animal age 12 weeks",145.4 ± 5.551 g
same,Muscle Tone,"[9]; male mice, animal age 13 weeks",147.8 ± 1.650 g
same,Muscle Tone,"[9]; male mice, animal age 14 weeks",129.2 ± 1.250 g
same,Rotarod performance,"[10]; female mice, Dosing Schedule (weeks) 2",269.8 ± 5.164 s
same,Rotarod performance,"[10]; female mice, Dosing Schedule (weeks) 4",258.8 ± 15.65 s
same,Rotarod performance,"[10]; female mice, Dosing Schedule (weeks) 6",275.3 ± 9.266 s
same,Rotarod performance,"[10]; female mice, Dosing Schedule (weeks) 8",272.3 ± 10.56 s
same,Rotarod performance,"[10]; female mice, Dosing Schedule (weeks) 10",238.4 ± 16.32 s
same,Rotarod performance,"[10]; female mice, Dosing Schedule (weeks) 12",252.3 ± 16.24 s
same,Rotarod performance,"[10]; female mice, Dosing Schedule (weeks) 14",270.6 ± 12.70 s
same,Rotarod performance,"[10]; female mice, Dosing Schedule (weeks) 16",255.9 ± 17.39 s
same,Rotarod performance,"[10]; male mice, Dosing Schedule (weeks) 6",250.8 ± 12.71 s
same,Rotarod performance,"[10]; male mice, Dosing Schedule (weeks) 8",236.4 ± 16.14 s
same,Rotarod performance,"[10]; male mice, Dosing Schedule (weeks) 10",234.0 ± 10.64 s
same,Rotarod performance,"[10]; male mice, Dosing Schedule (weeks) 11",215.6 ± 31.32 s
same,Rotarod performance,"[10]; male mice, Dosing Schedule (weeks) 12",202.4 ± 41.22 s
same,Rotarod performance,"[10]; male mice, Dosing Schedule (weeks) 13",135.32 ± 76.92 s
